Key:
Test in all cases: PK/LDH coupled ATPase assay, NADH absorbance, Hill fit
Assay type in all cases: biochemical
Smc (Bs Smc) [1] = target: T1, Smc (Bs Smc) (Bacillus subtilis, UniProt P51834, DEL396-486/DEL685-775); conditions: 50 mM HEPES-KOH pH 7.5, 50 mM NaCl, 2 mM MgCl2, 25 C, 0.3 uM protein, ATP varied; Mini-Smc(1-395, 487-684, 776-1186), construct taken from plasmid pSG2917
T1 construct: full length 1186 residues, untagged, E. coli BL21-Gold(DE3), homodimer; plasmid pSG1497 pET-22b Smc; no ScpAB or DNA

Smc (Bs Smc) [2] = target: T2, Smc (Bs Smc) (Bacillus subtilis, UniProt P51834); conditions: 50 mM HEPES-KOH pH 7.5, 50 mM NaCl, 2 mM MgCl2, 25 C, 0.3 uM protein, ATP varied; peptide insertion, plasmid pSG2966; matching strain printed as smc(1-479)-SGPGGGGGRQYQA-smc(480-1186)
T2 construct: full length 1186 residues, untagged, E. coli BL21-Gold(DE3), homodimer; plasmid pSG1497 pET-22b Smc; no ScpAB or DNA

Smc (Bs Smc) [3] = target: T2, Smc (Bs Smc); conditions: 50 mM HEPES-KOH pH 7.5, 50 mM NaCl, 2 mM MgCl2, 25 C, 0.3 uM protein, ATP varied; peptide insertion, plasmid pSG2965; matching strain printed as smc(1-394)-SGPGGGGGRQQAS-smc(395-1186)
Smc (Bs Smc) [4] = target: T3, Smc (Bs Smc) (Bacillus subtilis, UniProt P51834, DEL436-486/DEL685-735); conditions: 50 mM HEPES-KOH pH 7.5, 50 mM NaCl, 2 mM MgCl2, 25 C, 0.3 uM protein, ATP varied; Mini-Smc(1-435, 487-684, 736-1186), construct taken from plasmid pSG2915
T3 construct: full length 1186 residues, untagged, E. coli BL21-Gold(DE3), homodimer; plasmid pSG1497 pET-22b Smc; no ScpAB or DNA

Smc (Bs Smc) [5] = target: T4, Smc (Bs Smc) (Bacillus subtilis, UniProt P51834, DEL439-486/DEL685-732); conditions: 50 mM HEPES-KOH pH 7.5, 50 mM NaCl, 2 mM MgCl2, 25 C, 0.3 uM protein, ATP varied; Mini-Smc(1-438, 487-684, 733-1186), construct taken from plasmid pSG2914
T4 construct: full length 1186 residues, untagged, E. coli BL21-Gold(DE3), homodimer; plasmid pSG1497 pET-22b Smc; no ScpAB or DNA

Smc (Bs Smc) [6] = target: T5, Smc (Bs Smc) (Bacillus subtilis, UniProt P51834, DEL400-486/DEL685-771); conditions: 50 mM HEPES-KOH pH 7.5, 50 mM NaCl, 2 mM MgCl2, 25 C, 0.3 uM protein, ATP varied; Mini-Smc(1-399, 487-684, 772-1186), construct taken from plasmid pSG2916
T5 construct: full length 1186 residues, untagged, E. coli BL21-Gold(DE3), homodimer; plasmid pSG1497 pET-22b Smc; no ScpAB or DNA
T5 sequence (P51834 other isoform, or with tags, fused parts or gaps DEL400-486/DEL685-771): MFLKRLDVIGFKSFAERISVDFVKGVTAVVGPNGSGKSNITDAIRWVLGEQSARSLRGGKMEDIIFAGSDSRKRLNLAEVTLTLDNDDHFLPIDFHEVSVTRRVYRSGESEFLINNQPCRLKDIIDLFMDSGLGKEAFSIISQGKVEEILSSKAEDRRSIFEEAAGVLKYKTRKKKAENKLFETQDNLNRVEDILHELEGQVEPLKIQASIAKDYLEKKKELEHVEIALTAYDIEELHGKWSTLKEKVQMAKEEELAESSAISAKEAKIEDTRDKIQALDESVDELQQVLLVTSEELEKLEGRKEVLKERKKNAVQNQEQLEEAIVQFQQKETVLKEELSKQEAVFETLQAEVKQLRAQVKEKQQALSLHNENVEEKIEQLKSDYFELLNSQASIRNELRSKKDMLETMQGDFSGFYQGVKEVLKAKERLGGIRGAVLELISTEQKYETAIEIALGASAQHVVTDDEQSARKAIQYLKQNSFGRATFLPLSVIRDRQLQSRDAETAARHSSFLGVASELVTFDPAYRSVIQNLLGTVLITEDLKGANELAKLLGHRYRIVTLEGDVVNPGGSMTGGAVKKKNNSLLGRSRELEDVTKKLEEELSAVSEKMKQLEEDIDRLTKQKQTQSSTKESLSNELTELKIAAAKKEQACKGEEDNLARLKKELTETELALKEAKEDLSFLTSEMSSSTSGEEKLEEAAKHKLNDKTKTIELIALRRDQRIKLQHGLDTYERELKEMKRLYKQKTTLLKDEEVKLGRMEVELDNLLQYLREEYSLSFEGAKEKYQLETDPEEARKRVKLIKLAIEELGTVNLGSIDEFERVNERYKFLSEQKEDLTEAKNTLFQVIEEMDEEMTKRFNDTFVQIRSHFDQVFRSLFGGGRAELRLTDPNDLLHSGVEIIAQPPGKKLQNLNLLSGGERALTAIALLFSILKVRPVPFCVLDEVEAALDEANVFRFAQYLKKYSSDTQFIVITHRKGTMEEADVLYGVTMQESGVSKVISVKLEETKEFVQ

T2 sequence (P51834 whole entry): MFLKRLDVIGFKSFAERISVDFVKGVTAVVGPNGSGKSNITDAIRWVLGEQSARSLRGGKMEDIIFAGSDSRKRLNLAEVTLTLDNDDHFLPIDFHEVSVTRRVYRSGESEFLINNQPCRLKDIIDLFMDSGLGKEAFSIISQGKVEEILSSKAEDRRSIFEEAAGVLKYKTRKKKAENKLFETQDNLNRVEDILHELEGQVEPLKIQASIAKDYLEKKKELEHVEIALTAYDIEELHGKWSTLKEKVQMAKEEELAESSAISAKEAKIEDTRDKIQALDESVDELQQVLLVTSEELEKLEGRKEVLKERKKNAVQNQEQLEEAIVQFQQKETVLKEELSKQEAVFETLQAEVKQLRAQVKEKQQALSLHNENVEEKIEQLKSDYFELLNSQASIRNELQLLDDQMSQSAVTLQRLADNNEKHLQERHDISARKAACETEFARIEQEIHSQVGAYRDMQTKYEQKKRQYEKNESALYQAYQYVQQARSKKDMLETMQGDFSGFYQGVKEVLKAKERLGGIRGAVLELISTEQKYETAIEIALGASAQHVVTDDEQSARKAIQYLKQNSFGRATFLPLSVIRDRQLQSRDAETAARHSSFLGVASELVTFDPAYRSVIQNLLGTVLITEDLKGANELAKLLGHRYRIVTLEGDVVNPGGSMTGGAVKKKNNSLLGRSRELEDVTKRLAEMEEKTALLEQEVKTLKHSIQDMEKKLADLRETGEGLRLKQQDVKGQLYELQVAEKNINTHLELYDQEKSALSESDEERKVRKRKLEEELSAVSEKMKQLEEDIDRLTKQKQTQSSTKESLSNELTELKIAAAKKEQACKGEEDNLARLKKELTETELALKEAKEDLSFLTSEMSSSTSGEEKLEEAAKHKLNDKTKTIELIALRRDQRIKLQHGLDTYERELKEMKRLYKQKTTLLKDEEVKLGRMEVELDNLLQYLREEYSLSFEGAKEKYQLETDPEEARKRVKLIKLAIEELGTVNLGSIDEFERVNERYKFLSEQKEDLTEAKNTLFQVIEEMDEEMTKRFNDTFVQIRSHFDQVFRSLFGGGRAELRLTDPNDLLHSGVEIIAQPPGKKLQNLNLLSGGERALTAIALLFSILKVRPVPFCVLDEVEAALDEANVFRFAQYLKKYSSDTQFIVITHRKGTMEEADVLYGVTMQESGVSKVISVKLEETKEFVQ
T3 sequence (P51834 other isoform, or with tags, fused parts or gaps DEL436-486/DEL685-735): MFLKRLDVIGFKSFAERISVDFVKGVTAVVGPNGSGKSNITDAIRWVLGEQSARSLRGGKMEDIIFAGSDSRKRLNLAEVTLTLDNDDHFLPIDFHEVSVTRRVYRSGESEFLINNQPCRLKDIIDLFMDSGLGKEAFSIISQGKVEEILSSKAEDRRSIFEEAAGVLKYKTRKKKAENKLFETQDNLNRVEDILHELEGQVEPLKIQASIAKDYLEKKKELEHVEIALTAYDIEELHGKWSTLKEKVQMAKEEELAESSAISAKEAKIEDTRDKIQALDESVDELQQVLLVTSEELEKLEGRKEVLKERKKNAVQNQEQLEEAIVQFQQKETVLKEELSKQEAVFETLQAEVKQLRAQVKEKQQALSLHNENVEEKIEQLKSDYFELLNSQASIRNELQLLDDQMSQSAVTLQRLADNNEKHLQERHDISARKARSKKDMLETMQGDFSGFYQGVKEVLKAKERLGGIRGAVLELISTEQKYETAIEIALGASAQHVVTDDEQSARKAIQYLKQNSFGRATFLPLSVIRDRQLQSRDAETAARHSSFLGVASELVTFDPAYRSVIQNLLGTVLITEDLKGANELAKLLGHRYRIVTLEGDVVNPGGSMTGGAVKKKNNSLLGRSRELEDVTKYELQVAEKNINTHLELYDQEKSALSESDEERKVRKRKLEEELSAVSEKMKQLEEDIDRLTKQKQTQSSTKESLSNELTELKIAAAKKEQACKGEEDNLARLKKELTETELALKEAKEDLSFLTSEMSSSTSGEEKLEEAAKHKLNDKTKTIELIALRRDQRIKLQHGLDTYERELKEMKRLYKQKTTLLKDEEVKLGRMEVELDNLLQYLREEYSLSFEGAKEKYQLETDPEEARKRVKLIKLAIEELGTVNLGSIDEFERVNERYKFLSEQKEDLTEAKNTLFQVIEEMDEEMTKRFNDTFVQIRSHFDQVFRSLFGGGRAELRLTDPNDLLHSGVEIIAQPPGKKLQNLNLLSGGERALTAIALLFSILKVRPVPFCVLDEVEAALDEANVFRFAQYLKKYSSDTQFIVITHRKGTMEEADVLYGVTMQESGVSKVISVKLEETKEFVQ
T1 sequence (P51834 other isoform, or with tags, fused parts or gaps DEL396-486/DEL685-775): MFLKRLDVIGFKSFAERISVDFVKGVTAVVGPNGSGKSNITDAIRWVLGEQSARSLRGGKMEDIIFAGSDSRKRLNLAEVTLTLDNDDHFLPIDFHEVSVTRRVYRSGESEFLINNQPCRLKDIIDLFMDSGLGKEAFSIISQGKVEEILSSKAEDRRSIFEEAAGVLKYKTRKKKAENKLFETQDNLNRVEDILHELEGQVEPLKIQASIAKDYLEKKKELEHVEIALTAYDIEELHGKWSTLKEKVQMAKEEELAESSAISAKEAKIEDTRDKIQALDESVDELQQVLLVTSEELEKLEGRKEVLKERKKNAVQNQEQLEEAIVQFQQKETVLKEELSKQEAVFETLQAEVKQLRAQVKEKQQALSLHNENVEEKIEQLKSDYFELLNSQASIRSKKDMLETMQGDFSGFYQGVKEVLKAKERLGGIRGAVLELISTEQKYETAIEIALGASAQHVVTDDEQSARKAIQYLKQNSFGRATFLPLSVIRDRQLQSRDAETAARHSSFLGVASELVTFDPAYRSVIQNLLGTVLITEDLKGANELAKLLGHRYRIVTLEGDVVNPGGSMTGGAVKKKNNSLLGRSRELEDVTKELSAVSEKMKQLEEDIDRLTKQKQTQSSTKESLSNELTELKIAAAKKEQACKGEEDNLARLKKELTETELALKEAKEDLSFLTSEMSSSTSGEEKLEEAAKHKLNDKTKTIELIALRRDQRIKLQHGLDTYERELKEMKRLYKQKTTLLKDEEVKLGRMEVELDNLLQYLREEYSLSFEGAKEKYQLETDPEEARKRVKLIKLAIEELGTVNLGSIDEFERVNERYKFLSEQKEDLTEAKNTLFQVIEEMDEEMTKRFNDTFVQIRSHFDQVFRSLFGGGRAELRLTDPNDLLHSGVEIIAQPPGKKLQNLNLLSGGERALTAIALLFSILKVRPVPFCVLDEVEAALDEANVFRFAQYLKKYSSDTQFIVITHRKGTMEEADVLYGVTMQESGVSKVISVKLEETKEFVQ

## Nc1ncnc2c1ncn2[C@@H]1O[C@H](COP(=O)(O)OP(=O)(O)OP(=O)(O)O)[C@@H](O)[C@H]1O [ATP]
Smc (Bs Smc) [1]
  K0.5: We then purified Mini-Smc proteins to measure their ability to hydrolyze ATP in vitro
Smc (Bs Smc) [2]
  K0.5: Smc proteins with peptide insertions are functional ATPases
Smc (Bs Smc) [3]
  K0.5: Smc proteins with peptide insertions are functional ATPases
Smc (Bs Smc) [4]
  K0.5: We then purified Mini-Smc proteins to measure their ability to hydrolyze ATP in vitro
Smc (Bs Smc) [5]
  K0.5: We then purified Mini-Smc proteins to measure their ability to hydrolyze ATP in vitro
Smc (Bs Smc) [6]
  K0.5: We then purified Mini-Smc proteins to measure their ability to hydrolyze ATP in vitro
